Measured values published in ChEMBL document CHEMBL1201862, “PubChem BioAssay data set” (2004).
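These data come from cells grown in 96-well plates and exposed to compound for 48 hours at five concentrations. The concentration for 50% growth inhibition is given as GI50.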 Active and inactive are the calls of the source. No stated cut-off is given here; in the data, active = GI50 up to about 1.1 µM and inactive = higher.

Tests used:
Assay in all cases: NCI tumour cell line growth inhibition, 48 h
[1] = system: TK-10
[2] = system: HCT-116
[3] = system: IGROV-1
[4] = system: 786-0
[5] = system: HCT-15
[6] = system: SNB-75
[7] = system: SW-620
[8] = system: HOP-92
[9] = system: HL-60
[10] = system: SF-539
[11] = system: LOX IMVI
[12] = system: U-251
[13] = system: HOP-62
[14] = system: KM12
[15] = system: MOLT-4
[16] = system: UACC-257
[17] = system: A498
[18] = system: SR

Row | SMILES | GI50 [1] | GI50 [2] | GI50 [3] | GI50 [4] | GI50 [5] | GI50 [6] | GI50 [7] | GI50 [8] | GI50 [9] | GI50 [10] | GI50 [11] | GI50 [12] | GI50 [13] | GI50 [14] | GI50 [15] | GI50 [16] | GI50 [17] | GI50 [18]
1 | c1ccc(CCCC2Sc3cccc4cccc(c34)S2)cc1 | > 100 µM (inactive) | > 100 µM (inactive) | > 100 µM (inactive) | > 100 µM (inactive) | > 100 µM | > 100 µM (inactive) | > 100 µM (inactive) | > 100 µM (inactive) | 64.6 µM (inactive) | > 100 µM (inactive) | > 100 µM (inactive) | > 100 µM (inactive) | > 100 µM (inactive) | > 100 µM (inactive) | – | – | – | –
2 | C/C(=N\NC(=O)c1ccccc1O)c1c(O)cc(C)oc1=O | > 100 µM (inactive) | 49.4 µM (inactive) | 34.2 µM (inactive) | > 100 µM (inactive) | 91.2 µM | 20.2 µM (inactive) | > 100 µM (inactive) | 10.4 µM (inactive) | 63.2 µM (inactive) | 62.8 µM (inactive) | 76 µM (inactive) | 37.7 µM (inactive) | 98.6 µM (inactive) | > 100 µM (inactive) | 67.5 µM (inactive) | 60 µM (inactive) | > 100 µM (inactive) | –
3 | Cc1cc(=O)n2c3c(c4c(cc13)c(CO)cc(=O)n4C)OC2 | 11.8 µM (inactive) | 4.45 µM (inactive) | 34.8 µM (inactive) | 12.6 µM (inactive) | – | 19.9 µM (inactive) | 5.71 µM (inactive) | 24.4 µM (inactive) | – | 7.73 µM (inactive) | 6.85 µM (inactive) | 6.14 µM (inactive) | 13 µM (inactive) | 7.94 µM (inactive) | – | 26.2 µM (inactive) | 14.6 µM (inactive) | –
4 | O=NN1CCN=C1c1ccc([N+](=O)[O-])cc1 | > 100 µM (inactive) | > 100 µM (inactive) | > 100 µM (inactive) | > 100 µM (inactive) | > 100 µM | > 100 µM (inactive) | > 100 µM (inactive) | > 100 µM (inactive) | > 100 µM (inactive) | > 100 µM (inactive) | > 100 µM (inactive) | > 100 µM (inactive) | > 100 µM (inactive) | > 100 µM (inactive) | > 100 µM (inactive) | > 100 µM (inactive) | – | > 100 µM (inactive)
5 | CCOC(=O)C1(c2ccccc2)CCC(=O)CC1 | > 100 µM (inactive) | > 100 µM (inactive) | > 100 µM (inactive) | > 100 µM (inactive) | > 100 µM | > 100 µM (inactive) | > 100 µM (inactive) | > 100 µM (inactive) | > 100 µM (inactive) | – | > 100 µM (inactive) | > 100 µM (inactive) | > 100 µM (inactive) | > 100 µM (inactive) | > 100 µM (inactive) | > 100 µM (inactive) | > 100 µM (inactive) | –
6 | O=C(O)CCSC(=O)Nc1ccccc1Cl | > 100 µM (inactive) | > 100 µM (inactive) | > 100 µM (inactive) | > 100 µM (inactive) | > 100 µM | > 100 µM (inactive) | > 100 µM (inactive) | > 100 µM (inactive) | – | > 100 µM (inactive) | > 100 µM (inactive) | > 100 µM (inactive) | > 100 µM (inactive) | 51.2 µM (inactive) | > 100 µM (inactive) | > 100 µM (inactive) | 60 µM (inactive) | > 100 µM (inactive)
7 | CCOC(=O)C(C(=O)OCC)=C1N[C@H](C(=O)OCC)CS1 | – | > 100 µM (inactive) | > 100 µM (inactive) | > 100 µM (inactive) | > 100 µM | – | > 100 µM (inactive) | – | > 100 µM (inactive) | > 100 µM (inactive) | > 100 µM (inactive) | > 100 µM (inactive) | > 100 µM (inactive) | > 100 µM (inactive) | > 100 µM (inactive) | > 100 µM (inactive) | – | > 100 µM (inactive)
8 | O=C(NNC(=O)c1cc(/C=C/c2cccc([N+](=O)[O-])c2)nc(S)n1)Nc1ccc(Cl)cc1 | > 100 µM (inactive) | 27.2 µM (inactive) | > 100 µM (inactive) | 47.8 µM (inactive) | 35.6 µM | > 100 µM (inactive) | – | – | 0.883 µM (active) | – | 20 µM (inactive) | 14.8 µM (inactive) | > 100 µM (inactive) | 98.9 µM (inactive) | 23.6 µM (inactive) | 91 µM (inactive) | > 100 µM (inactive) | 1.25 µM (inactive)
9 | COC(=O)C1=CC2OC13CC1CCC3(C2=O)C1(C)C (centres undefined) | 10.4 µM (inactive) | 11.4 µM (inactive) | 16.7 µM (inactive) | 12.2 µM (inactive) | 5.36 µM | 7.01 µM (inactive) | 4.05 µM (inactive) | – | 6.9 µM (inactive) | 14.2 µM (inactive) | – | 12.9 µM (inactive) | 23.4 µM (inactive) | 16.5 µM (inactive) | 14 µM (inactive) | 10.4 µM (inactive) | 19.1 µM (inactive) | –
